Test results taken from patent publication US8338420B1, “Treatment of Parkinson's disease and enhancement of dopamine signal using PDE 10 inhibitor” (Mitsubishi Tanabe Pharma Corporation, priority 2002, dated 2012).

Assays:
PDE4 = experiment: PDE assay, PDE4 enzyme solution from dog lung; format: biochemical, mixed-breed dog; details: substrate about 4.8 nM [3H]-cAMP and 1 μM cAMP
Experimental: These fractions were collected and glycerol was added thereto to become 50%, and the mixture was stored at −20° C.

PDE10 (PDE10A) = experiment: Measurement of PDE10 inhibitory activity (radiolabeled nucleotide PDE assay); format: biochemical, bovine; details: versus PDE1, 2, 3, 4, 5, 6, 7, 8, 9 and 11; IC50 value of 1/100 or less
Description: (1) Enzyme Preparation of PDE10 (PDE10A)
According to the methods described in Fujishige et al. (Fujishige et al., Eur. J. Biochem., vol. 266, pp. 1118-1127, 1999; and Mukai et al., Br. J. Pharmacol., vol. 111, pp. 389-390, 1994), the enzyme PDE10A was isolated and prepared as follows.
At first, corpus striatum was excised from bovine whole brain (Japanese Black Cattle, purchased from Tokyo Shibaura Zoki, co., Ltd.), and washed with ice-cold saline (0.9% sodium chloride). After the tissues were cut in a proper size, it was frozen by liquid nitrogen, and stored at −80° C. […]
The PDE assay was performed using the enzyme solution obtained in the above (1), and inhibitory activities of the compounds on PDE10 (PDE10A) were measured. […]
After the reaction was carried out while keeping the temperature at 37° C. for 30 minutes, the reaction was stopped by boiling the reaction mixture for 2 minutes, and further added thereto was 100 μl of snake venom (Crotalus atrox snake venom 1 mg/ml) and the temperature was kept at 37° C. for 30 minutes. […] Scintillation cocktail was added to each of the eluates, and the radioactivity was measured by scintillation counter. From them, PDE activity taking cAMP as a substrate (an activity to hydrolyze cAMP) was measured. […]

COc1ccc(-c2cc(N3CCCC3)nc(/C=C/c3nc(-n4ccnc4)c4ccccc4n3)n2)cc1OC [Compound A, 2-{(E)-2-[4-(1-imidazolyl)-quinazolin-2-yl]}ethenyl-4-(3,4-dimethoxy)phenyl-6-(pyrrolidin-1-yl)pyrimidine]
IC50 (PDE4): 160 nM | inhibitory activity on PDE10 as compared to other PDE families (selectivity) (PDE10 (PDE10A)): ≥ 100 times
